Measurements taken from patent US20190029928A1, “Fibrous Structures Comprising Malodor Reduction Compositions” (The Procter & Gamble Company, priority 2017, published 2019).
“And” between values parts separate entries of the source, which are not always exact repeats. Identical values can stand only once. Like-named read-outs stand apart in the source and are kept apart here.

Excerpt: The first step in the method for assigning a BI to a test sample material on the BI reference scale is to create the BI reference swatches. […] Fabric swatches for this test are white knit polycotton (4 inch×4 inch) swatches from EMC ordered as PC 50/50. The supplier is instructed to strip the swatches first, stripping involves washing twice with a fragrance-free detergent and rinsing three times.
Making the BI Reference Swatches
The BI scale contains one clean swatch with no malodor applied. […] These solutions are pipetted to the middle of the swatches. […] After drying for 30 minutes in a vented hood, the swatches are wrapped in aluminum foil to prevent odor contamination to the treated swatch. A clean untreated swatch is also included as the lowest anchor point of reference for malodor strength on the BI scale. The BI reference scale swatches should be used within 0.5 to 12 hours and discarded after 12 hours. The swatches are used as scale anchor points when graders evaluate a test sample(s) and are assigned a Blocker Index (BI) as show in Table 11 below.
The perfumer/expert grader is asked to rank order swatches according to a scale between 0 and 3.

CC(C)CC(=O)O [isovaleric acid]
BI rank Ave (2 μL 0.08% isovaleric acid, all graders (Table 11)): 1.0 | BI rank by individual expert grader (stripped swatch with 2 μL 0.08% isovaleric acid): 0.5 and 2.0 and 1.0 | BI rank by individual expert grader (stripped swatch with 5 μL 0.08% isovaleric acid): 2.0 and 2.5 | BI rank by individual expert grader (stripped swatch with 20 μL 0.08% isovaleric acid): 3.0 and 2.5
